Measured values from patent publication US20100124555A1, “Compositions and Methods for Treating Pancreatic Tumors” (UNIVERSITE DE LA MEDITERRANEE, priority 2007, published 2010).
One block for each molecule: values may come before it.

Assays:
[1] = system: SOJ-6 cells; test: Nuclear staining with DAPI (nuclear fragmentation); format: cell-based, human; details: RPMI induced no apoptosis
Description: After treatment with mAb16D10 or cisplatin, cells were washed in ice-cold PBS, fixed and permeablized with 70% ethanol for 5 min at […] and staining with diluted 1/1000 DAPI solution in PBS for 1 min at room temperature. The cells were then washed with PBS. The nuclear morphology of cells was examined by fluorescence microscopy.

[2] = system: Bcl-2, Bax, caspases 8 and 9, PARP in SOJ-6 cells; test: SDS-PAGE and western blot of apoptosis proteins; format: cell-based, human; details: SOJ-6, 24 hours
Description: SOJ-6 cells were grown in 6-well culture plates in RPMI 1640 medium with 10% FCS. At subconfluency, the medium was removed and replaced for 24 hours by fresh RPMI medium with 10% inactivated FCS. SOJ-6 cells were then incubated with mAb16D10 or Cisplatin for 24 hours. At the end of incubation, cells were washed three times with ice-cold PBS (without […] and Mg^++) harvested and pelleted by centrifugation. Pellets were washed twice and lysed at 4° C. in 0.5 ml of lysis buffer (10 mM Tris-HCl pH 7.4, 150 mM NaCl, 1% Triton X-100, 1 mM benzamidine and phosphatase inhibitors). After lysis, homogenates were clarified by centrifugation at 10,000 g for 10 min at 4° C. An aliquot was saved for protein determination using the bicinchoninic acid assay (Pierce, Rockford, Ill.). Proteins (50 μg/lane) in reducing SDS buffer were separated onto 10, 12, or 15% polyacrylamide with 0.1% SDS (according to the molecular weight range of proteins to be separated). After electrophoretic migration, proteins were silver stained. Alternatively, proteins were transferred onto nitrocellulose membranes using a Mini Transblot electrophoretic cell (BioRad, Hercule, Oreg.), and transferred proteins were immunodetected by using appropriate primary and secondary antibodies. After washes, membranes were developed with a chemoluminescent substrate according to the manufacturer's instructions (Roche Diagnostics, Switzerland). In each experiment, a control was included by omitting primary antibodies or by using a non-immune serum.

[3] = system: PANC-1 cells; test: MTT cell growth and proliferation assay, PANC-1; format: cell-based, human; details: PANC-1, 24 hours, gemcitabine 0 to 10 μM or cisplatin 0 to 40 μM
Description: (§1) Cell proliferation was determined using MTT assay as previously described (Mosmann et al., 1983 J Immunol Methods, 65(1-2):55-63). Briefly, cells were seeded at subconfluence in appropriate complete media containing 10% FCS in 96-well culture plates. Media were replaced for 24 h by fresh media with 10% inactivated FCS, including increasing concentrations of antibodies directed against FAPP (pAbL64, mAbJ28 and mAb16D10). Cells were washed with PBS and incubated with 100 μl of MTT (0.5 mg/ml) in complete media for 3 h, washed with PBS and finally incubated with DMSO for 30 min at 37° C. Cell growth was determined by measuring absorbance at 550 nm using a MR 5000 microplate spectrophotometer. All independent determinations were done in triplicate and compared to control.

[4] = system: 16D10 epitope on the BSDL/FAPP polypeptide of SOJ-6 cells; test: 16D10 epitope expression on drug-treated cells (immunofluorescence and flow cytometry); format: cell-based, human; details: for cell morphology of drug-treated cells: SOJ-6, immunofluorescence; for 16D10 staining by immunofluorescence of drug-treated cells: SOJ-6 on glass slides; for Average (16D10 binding, flow cytometry) / 16D10 epitope expression: SOJ-6 treated with 20 μM cisplatin or 5 μM gemcitabine; for Average (16D10 binding, flow cytometry): control 418.7 +/− 50.5; for 16D10 epitope expression: change versus control
Description: Antibody 16D10 binding to SOJ-6 cells following treatment with chemotherapeutic agents was tested in order to assess whether gemcitabine or cisplatin affect the expression of the 16D10 epitope on the BSDL/FAPP polypeptide. Antibody 16D10 binding was assessed by immunofluorescence and flow cytometry following treatment of SOJ-6 cells with 20 μM cisplatin or 5 μM gemcitabine.
For immunofluorescence, SOJ-6 cells were cultured on glass slides and treated or not with gemcitabine or cisplatin, fixed and incubated in the presence of 16D10 and a secondary antibody coupled to fluorescein. Slides were assessed with fluorescence microscope.

[5] = system: SOJ-6 cells; test: MTT cell growth and proliferation assay, SOJ-6; format: cell-based, human; details: SOJ-6, 24 hours, gemcitabine 0 to 10 μM or cisplatin 0 to 40 μM
[6] = system: SOJ-6 cells; test: MTT cell growth and proliferation assay, SOJ-6; format: cell-based, human; details: SOJ-6 treated with raft-disrupting drug or glycosphingolipid biosynthesis inhibitor (10 μM), with mAb16D10
Description: as §1

[7] = system: SOJ-6 cells; test: Apoptosis by caspase activity (CaspACE FITC-VAD-fmk in situ marker); format: cell-based, human; details: SOJ-6, 24 hours; 16D10 25 μg/ml, recombinant chimeric 16D10 5 μg/ml
Description: Cells grown in 8-well plates (Polystyrene vessel, BD Falcon) were treated with mAb16D10 or mouse IgM in RPMI with inactivated FCS for 24 hours prior to the addition of CaspACE FITC-VAD-fmk in situ marker (Promega) at a final concentration of 10 μM in the culture medium according to manufacturer's instructions. Then cells were washed in PBS, fixed for 15 minutes in 2% paraformaldehyde, and washed once again. Upon caspase action on FITC-VAD-fmk, apoptotic cells become fluorescent and the number of fluorescent cells was determined in triplicate on collections of 10 fields randomly examined under the fluorescent microscope.

[8] = system: pancreatic cancers; details: patients with pancreatic cancer; cited from earlier work
[9] = target: feto-acinar pancreatic protein (FAPP), oncofetal glycoisoform of pancreatic bile salt-dependent lipase (BSDL), on the surface of SOJ-6 human pancreatic tumor cells (human) (UniProt P19835); test: isotype control in indirect immunofluorescence flow cytometry (FL1-H) on SOJ-6 cells; antibody concentration not given; row 'Control -': Median 3,02
[10] = target: PANC-1; test: isotype control in indirect immunofluorescence flow cytometry (FL1-H) on PANC-1 cells (no FAPP); antibody concentration not given; row 'Control -': Median 3,22
[11] = target: PANC-1; test: isotype control in indirect immunofluorescence flow cytometry (FL1-H) on PANC-1 cells (no FAPP); main peak near the negative control with a tail to about 100-200 FL1-H; antibody concentration not given; row 'Control -': Mean 4,60
[12] = target: feto-acinar pancreatic protein (FAPP), oncofetal glycoisoform of pancreatic bile salt-dependent lipase (BSDL), on the surface of SOJ-6 human pancreatic tumor cells (human) (UniProt P19835); test: isotype control in indirect immunofluorescence flow cytometry (FL1-H) on SOJ-6 cells; broad histogram from about 2 to about 300 FL1-H, between the negative control and mAb16D10; antibody concentration not given; row 'Control -': Mean 3,43
[13] = system: NK cells; test: NK cell activation (ADCC): CD107 mobilization and IFN-γ production by flow cytometry; format: cell-based, human; details: presence of SOJ-6 cells
Description: Thawed purified human NK cells stimulated or not overnight with 100 UI/mL of IL-2 were mixed with SOJ-6 or B221 cell lines at an effector/target ratio equal to 1, alone or in the presence of rec16D10 (30 μg/mL) or rituxan (10 μg/mL). Cells were then incubated for 4 hours at 37° C. in the presence of FITC conjugated anti-CD107 mAbs (Becton Dickinson) and monensin (sigma). After incubation, cells were washed in PBS containing 2 mM EDTA to disrupt cell conjugates and stained for extracellular markers (PC5 conjugated anti-CD56 and PC7 conjugated anti-CD3 purchased from Beckman coulter). Cells were then fixed and permeabilized using IntraPrep reagent (Beckman Coulter). […] Samples were then analysed on FACScanto (Becton Dickinson).
The chimeric antibody rec16D10 (30 μg/ml) was incubated with target SOJ-6 cells together with NK cells, with or without overnight treatment with IL-2 (100 U/ml) (FIG. 19). As a control, the Rituxan antibody (10 μg/ml) was used with target B221 cells. Effector cells and target cells were used at a ratio of: 1/1 (100000 NK/well). Thawed purified NK cells from two donors (NK1 and NK2) were incubated with the antibodies and target cells. Activation of NK cells was examined by virtue of CD 107 staining and IFN-γ secretion. […] Under similar conditions, approximately 30% of NK1 and NK2 cells secreted IFN-γ (vs. less than 16% and 13% in the absence of antibody or with Rituxan in NK1 and NK2 cells, respectively) (FIG. 21).

[14] = system: SOJ-6 cells; test: Annexin V / PI apoptosis assay; format: cell-based, human; details: antibodies 20 μg/ml, tunicamycin 25 or 50 μg/ml
Description: SOJ-6 cells (20.10^4 cells per well) were seeded onto 24 wells plates 72H before to start the experiment. Cells were incubated either with 20 μg/ml 16D10 IgM, or 20 μg/ml of a further recombinant 16D10 IgG1 antibody which contained the 16D10 variable regions linked fused to a human IgG1 constant region and human kappa light region for the heavy and light chains respectively, 25 μg/ml Tunicamycin or 50 μg/ml Tunicamycin. The AnnexinV/PI stainings were performed after 24H of culture using the AnnexinV-FITC Apoptosis Detection Kit I (BD Pharmingen) according to the manufacturer instructions. Stainings were acquired on a FACScan (Becton Dickinson, San Jose, Calif.) and results were analysed using FlowJo Software.

feto-acinar pancreatic protein (FAPP), oncofetal glycoisoform of pancreatic bile salt-dependent lipase (BSDL), on the surface of SOJ-6 human pancreatic tumor cells (human), sequence (P19835 21-753): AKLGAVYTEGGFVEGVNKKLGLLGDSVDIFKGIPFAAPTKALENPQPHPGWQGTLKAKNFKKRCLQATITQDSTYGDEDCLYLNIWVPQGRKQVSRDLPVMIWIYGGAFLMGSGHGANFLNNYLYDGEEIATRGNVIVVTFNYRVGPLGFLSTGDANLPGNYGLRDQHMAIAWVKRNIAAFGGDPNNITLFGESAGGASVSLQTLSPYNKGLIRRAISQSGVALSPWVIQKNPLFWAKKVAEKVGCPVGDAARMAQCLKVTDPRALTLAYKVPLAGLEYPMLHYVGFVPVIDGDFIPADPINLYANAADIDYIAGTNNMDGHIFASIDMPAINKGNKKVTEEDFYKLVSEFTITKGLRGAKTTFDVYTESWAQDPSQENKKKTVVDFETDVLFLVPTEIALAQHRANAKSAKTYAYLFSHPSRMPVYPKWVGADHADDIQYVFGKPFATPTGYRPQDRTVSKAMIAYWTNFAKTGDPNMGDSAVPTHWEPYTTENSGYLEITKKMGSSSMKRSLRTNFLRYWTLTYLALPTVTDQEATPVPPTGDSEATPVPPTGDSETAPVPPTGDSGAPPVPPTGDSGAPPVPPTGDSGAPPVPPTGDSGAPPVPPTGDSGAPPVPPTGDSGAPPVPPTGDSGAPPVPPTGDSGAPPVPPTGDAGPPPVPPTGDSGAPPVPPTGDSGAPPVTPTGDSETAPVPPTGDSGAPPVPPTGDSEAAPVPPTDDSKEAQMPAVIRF

Molecule: N.N.[Cl][Pt][Cl] [Cisplatin, cis-diaminedichloridoplatinum(II)]
apoptosis observed by DAPI staining (nuclear fragmentation) [1]: low level of apoptosis | activation of caspase 9 and PARP (immunodetection) [2]: activated | proliferation by MTT assay [3]: dose dependent decrease in proliferation is seen for both cell lines | 16D10 surface binding of drug-treated cells (flow cytometry, in words) ([4]; SOJ-6): decrease in expression of the 16D10 epitope | cell morphology of drug-treated cells [4]: clear morphological changes | 16D10 staining by immunofluorescence of drug-treated cells [4]: showed staining with 16D10 | Average (16D10 binding, flow cytometry) [4]: 324.6 +/− 26.3 | 16D10 epitope expression [4]: −32.5 | proliferation by MTT assay [5]: dose dependent decrease in proliferation is seen for both cell lines

Molecule: CCCCC[C@@H](O)[C@H]1C(=O)O[C@H](C)[C@@H](O)/C=C/C=C/C=C/C=C/C=C(\C)[C@@H](O)C[C@H](O)C[C@H](O)C[C@H](O)C[C@H](O)C[C@H](O)C[C@@H]1O [Filipin]
influence on the antiproliferative effect of mAb16D10 [6]: decreased

Molecule: CCCC[C@@H](C)[C@@H](OC(=O)C[C@@H](CC(=O)O)C(=O)O)[C@H](C[C@@H](C)C[C@H](O)CCCC[C@@H](O)C[C@H](O)[C@H](C)N)OC(=O)C[C@@H](CC(=O)O)C(=O)O [Fumonisin 1, Fumonisin B1]
influence on the antiproliferative effect of mAb16D10 [6]: neither L-cyclo-serine (LCS) (an inhibitor of serine palmitoyltransferase) nor Fumonisin 1 or 2 (both inhibitors of dihydroceramide synthetase) interfered

Molecule: CCCC[C@@H](C)[C@@H](OC(=O)C[C@@H](CC(=O)O)C(=O)O)[C@H](C[C@@H](C)CCCCCC[C@@H](O)C[C@H](O)[C@H](C)N)OC(=O)C[C@@H](CC(=O)O)C(=O)O [Fumonisin 2, Fumonisin B2]
influence on the antiproliferative effect of mAb16D10 [6]: neither L-cyclo-serine (LCS) (an inhibitor of serine palmitoyltransferase) nor Fumonisin 1 or 2 (both inhibitors of dihydroceramide synthetase) interfered

Molecule: Nc1ccn(C2OC(CO)C(O)C2(F)F)c(=O)n1 (stereo not shown) [Gemcitabine, 4-amino-1-[3,3-difluoro-4-hydroxy-5-(hydroxymethyl)tetrahydrofuran-2-yl]-1H-pyrimidin-2-one]
apoptosis by caspase activity (number of apoptotic cells compared to control) [7]: induce apoptosis on SOJ-6 cells | activation of caspase 9 and PARP (immunodetection) [2]: activated | proliferation by MTT assay [3]: relatively resistant to gemcitabine | cell morphology of drug-treated cells [4]: clear morphological changes | 16D10 staining by immunofluorescence of drug-treated cells [4]: showed staining with 16D10 | Average (16D10 binding, flow cytometry) [4]: 419.0 +/− 36.2 | 16D10 epitope expression [4]: 0 | proliferation by MTT assay [5]: a decrease in proliferation is seen only in SOJ-6 cells | improvement in survival at one year compared to untreated patients [8]: 18%

Molecule: N[C@H]1CONC1=O [L-cyclo-serine]
influence on the antiproliferative effect of mAb16D10 [6]: neither L-cyclo-serine (LCS) (an inhibitor of serine palmitoyltransferase) nor Fumonisin 1 or 2 (both inhibitors of dihydroceramide synthetase) interfered

Molecule: CCCCCCCCCC(=O)NC(CN1CCOCC1)C(O)c1ccccc1 (stereo not shown) [PDMP, Phenyl-2-decanoylamino-3-morpholino-1-propanol]
influence on the antiproliferative effect of mAb16D10 [6]: impaired the effect of mAb16D10 on SOJ-6 cell proliferation

Median [9]: 19.8 | Median [10]: 4.61 | Mean [11]: 13 | Mean [12]: 86.7
Molecule: IgM mouse SIGMA (antibody)

Molecule: Rituxan: Rituxan antibody used as a control with target B221 cells [reference compound]
NK1 cells secreting IFN-γ ([13]; donor NK1, IL-2 treated): less than 16% | CD 107-positive staining of NK1 cells ([13]; donor NK1, IL-2 treated, E/T 1/1, rec16D10 30 μg/ml, Rituxan 10 μg/ml): < 30% | NK2 cells secreting IFN-γ ([13]; donor NK2, IL-2 treated): < 13% | CD 107-positive staining of NK2 cells ([13]; donor NK2, IL-2 treated, E/T 1/1, rec16D10 30 μg/ml, Rituxan 10 μg/ml): < 20%

Molecule: methyl-β-cyclodextrin
influence on the antiproliferative effect of mAb16D10 [6]: decreased | influence on the antiproliferative effect of mAb16D10 ([6]; listed as MBCD): decreases or abolishes the cell growth inhibiting activity of antibody 16D10

Molecule: tunicamycin [reference compound]
apoptosis by Annexin V and Annexin V/PI staining [14]: induced significant levels of apoptosis
